Columns and labels:
[1] = biological target: IRAK4 protein in THP-1 cells (Homo sapiens (Human), UniProt Q9NWZ3); assay: Degradation of IRAK4 in THP-1 cells, human IRAK4 AlphaLISA assay; type: cell-based; conditions: 24 h incubation
Experimental: THP-1 cells (Stem Cell Bank, Chinese Academy of Sciences) were inoculated onto a 24-well cell culture plate at 0.95 mL/well, with a cell density of 5×10^5 cells/well. The cell plate was incubated overnight in a 37° C., 5% carbon dioxide incubator, and 50 μL of a solution of a compound in dimethyl sulfoxide was added, such that the final concentration of the compound fell within the range of 0.03-3000 nM. After another 24 h of incubation, cells were collected into 1.5 mL centrifuge tubes and centrifuged at 1000 rpm at 4° C. for 5 min. The cell pellets were washed twice with 1×DPBS. The resuspended cells were lysed with 200 μL of lysis buffer (Western and IP cell lysis buffer (Beyotime), supplemented with 1 mM phenylmethylsulfonyl fluoride and protease inhibitor cocktail (Beyotime)), left to stand on ice for 30 mini, and then centrifuged at 14,000 g at 4° C. for 10 min. The supernatant samples were assayed by Western Blot for IRAK4 protein levels.
The above cell lysates were also tested for IRAK4 degradation using a human IRAK4 AlphaLISA assay kit (PerkinElmer, AL3117C). The method is specifically as follows: 2-μL test samples of cell lysate supernatant were transferred to a white 384-well plate (PerkinElmer, 6007299), and 4 μL of 5× anti-IRAK4 receptor beads (PerkinElmer, final concentration of 10 μg/mL) was then added. The plate was incubated at 23° C. for 30 min. Then 4 μL of 5× biotin-labeled anti-IRAK4 antibody (PerkinElmer, final concentration of 1 nM) was added, and the plate was incubated at 23° C. for 60 min. Finally, 10 μL of 2′ streptavidin-labeled donor beads (final concentration of 40 μg/mL) was added to each well, and the plate was incubated in the dark at 23° C. for 30 min. After the incubation was complete, AlphaLISA signal values were measured on a microplate reader EnVision (PerkinElmer, 2105) in the AlphaScreen standard mode, and IRAK4 concentrations were calculated from these signal values. Then a non-linear curve fitting of logarithmic concentration-inhibition rate was performed using GraphPad Prism 7, and the DC50 and Dmax values of the compound were obtained.

IRAK4 kinase = IRAK4 kinase (Homo sapiens (Human), UniProt Q9NWZ3); assay: IRAK4 kinase activity test (KinEASE-STK S1 HTRF kit); type: biochemical; conditions: 2.5 nM IRAK4 kinase, 7 μM ATP, 37° C. 120 min
IRAK4 kinase, sequence (Q9NWZ3 whole entry): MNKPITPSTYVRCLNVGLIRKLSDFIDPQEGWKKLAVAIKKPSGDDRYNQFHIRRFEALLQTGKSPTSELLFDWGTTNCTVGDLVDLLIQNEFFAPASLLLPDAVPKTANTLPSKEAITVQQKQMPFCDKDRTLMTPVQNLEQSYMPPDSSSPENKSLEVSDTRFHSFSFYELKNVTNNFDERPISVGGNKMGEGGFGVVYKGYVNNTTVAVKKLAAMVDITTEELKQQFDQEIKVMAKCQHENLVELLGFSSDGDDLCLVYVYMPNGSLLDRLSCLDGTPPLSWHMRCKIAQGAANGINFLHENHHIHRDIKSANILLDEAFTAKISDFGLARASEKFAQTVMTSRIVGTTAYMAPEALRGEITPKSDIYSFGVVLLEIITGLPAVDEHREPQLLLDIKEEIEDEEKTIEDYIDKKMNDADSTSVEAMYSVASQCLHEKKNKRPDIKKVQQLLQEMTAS
Experimental: Then 2.5 nM 1RAK4 kinase (Carna), 1 μM biotinylated polypeptide substrate (Cisbio) and 7 μM adenosine triphosphate (Sigma-Aldrich) were sequentially added, and the mixtures were incubated at 37° C. for 120 min. Subsequently, an anti-phosphoserine/threonine antibody (Cisbio) conjugated with a europium element compound and conjugated modified XL665 streptavidin (Cisbio) were added to the reaction systems to stop the reactions. After 1 h of incubation at room temperature, the fluorescence intensity of each well was measured at the excitation wavelength of 337 nm and the emission wavelengths of 620 nm and 665 nm with a microplate reader EnVision (PerkinElmer) in the HTRF mode, and Ratio values were calculated using the formula Ratio=(665 nm/620 nm)×[…]. The inhibition rate of the compound at each concentration was calculated by comparing the fluorescence intensity ratio with that of the control group. Then a non-linear curve fitting of logarithmic concentration-inhibition rate was performed using GraphPad Prism 7, and the IC50 value of the compound was obtained.

IRAK4 protein in THP-1 cells, sequence (Q9NWZ3 whole entry): as above

| DC50 [1] [µM] | IC50 (IRAK4 kinase) [µM] | Dmax [1] [%] | SMILES | Dmax (%) [1] [%] |
| --- | --- | --- | --- | --- |
| 0.0055 | 0.0193 | 84.4 | COc1ccc(C(=O)N2CCC3(CCC(CN4CCC(n5cc(NC(=O)c6cnn7ccc(N8C[C@H]9C[C@@H]8CO9)nc67)c(C(F)F)n5)CC4)CC3)CC2)cc1N1CCC(=O)NC1=O [Example 13, 5-((1R,4R)-2-oxa-5-azabicyclo[2.2.1]heptan-5-yl)-N-(3-(difluoromethyl)-1-(1-((3-(3-(2,4-dioxotetrahydropyrimidin-1(2H)-yl)-4-methoxybenzoyl)-3-azaspiro[5.5]undecan-9-yl)methyl)piperidin-4-yl)-1H-pyrazol-4-yl)pyrazolo[1,5-a]pyrimidine-3-carboxamide] |  |
| 0.0025 | 0.0142 | 92.1 | O=C1CCN(c2cc(C(=O)N3CCC4(CCC(CN5CCC(n6cc(NC(=O)c7cnn8ccc(N9CCOCC9)nc78)c(C(F)F)n6)CC5)CC4)CC3)ccc2Cl)C(=O)N1 [Example 15, N-(1-(1-((3-(4-chloro-3-(2,4-dioxotetrahydropyrimidin-1(2H)-yl)benzoyl)-3-azaspiro[5.5]undecan-9-yl)methyl)piperidin-4-yl)-3-(difluoromethyl)-1H-pyrazol-4-yl)-5-morpholinopyrazolo[1,5-a]pyrimidine-3-carboxamide] |  |
| 0.0064 | 0.0088 | 87.9 | COc1ccc(C(=O)N2CCC3(CCC(CN4CCC(n5cc(NC(=O)c6cnn7ccc(N8CC9CCC(C8)O9)nc67)c(C(F)F)n5)CC4)CC3)CC2)cc1N1CCC(=O)NC1=O [Example 16, 5-(8-oxa-3-azabicyclo[3.2.1]octan-3-yl)-N-(3-(difluoromethyl)-1-(1-((3-(3-(2,4-dioxotetrahydropyrimidin-1(2H)-yl)-4-methoxybenzoyl)-3-azaspiro[5.5]undecan-9-yl)methyl)piperidin-4-yl)-1H-pyrazol-4-yl)pyrazolo[1,5-a]pyrimidine-3-carboxamide] |  |
| 0.0543 | 0.0669 | 62.5 | O=C1CCN(c2cc(C(=O)N3CCC(COCCN4CCC(n5cc(NC(=O)c6cnn7ccc(N8C[C@H]9C[C@@H]8CO9)nc67)c(C(F)F)n5)CC4)CC3)ccc2Cl)C(=O)N1 [Example 18, 5-((1R,4R)-2-oxa-5-azabicyclo[2.2.1]heptan-5-yl)-N-(1-(1-(2-((1-(4-chloro-3-(2,4-dioxotetrahydropyrimidin-1(2H)-yl)benzoyl)piperidin-4-yl)methoxy)ethyl)piperidin-4-yl)-3-(difluoromethyl)-1H-pyrazol-4-yl)pyrazolo[1,5-a]pyrimidine-3-carboxamide] |  |
| 0.0051 | 0.0038 | 97.7 | O=C1CCN(c2cc(C(=O)N3CCC4(CCC(CN5CCC(n6cc(NC(=O)c7cnn8ccc(N9CCNCC9)nc78)c(C(F)F)n6)CC5)CC4)CC3)ccc2Cl)C(=O)N1 [Example 19, N-(1-(1-((3-(4-chloro-3-(2,4-dioxotetrahydropyrimidin-1(2H)-yl)benzoyl)-3-azaspiro[5.5]undecan-9-yl)methyl)piperidin-4-yl)-3-(difluoromethyl)-1H-pyrazol-4-yl)-5-(piperazin-1-yl)pyrazolo[1,5-a]pyrimidine-3-carboxamide] |  |
| 0.0786 | 0.0892 | 87 | CN(CCN1CCC(n2cc(NC(=O)c3cnn4ccc(N5C[C@H]6C[C@@H]5CO6)nc34)c(C(F)F)n2)CC1)CC1CCN(C(=O)c2ccc(Cl)c(N3CCC(=O)NC3=O)c2)CC1 [Example 20, 5-((1R,4R)-2-oxa-5-azabicyclo[2.2.1]heptan-5-yl)-N-(1-(1-(2-(((1-(4-chloro-3-(2,4-dioxotetrahydropyrimidin-1(2H)-yl)benzoyl)piperidin-4-yl)methyl)(methyl)amino)ethyl)piperidin-4-yl)-3-(difluoromethyl)-1H-pyrazol-4-yl)pyrazolo[1,5-a]pyrimidine-3-carboxamide] |  |
| 0.0096 | 0.0099 | 95.5 | O=C1CCN(c2cc(C(=O)N3CCC(CCCCN4CCC(n5cc(NC(=O)c6cnn7ccc(N8C[C@H]9C[C@@H]8CO9)nc67)c(C(F)F)n5)CC4)CC3)ccc2Cl)C(=O)N1 [Example 21, 5-((1R,4R)-2-oxa-5-azabicyclo[2.2.1]heptan-5-yl)-N-(1-(1-(4-(1-(4-chloro-3-(2,4-dioxotetrahydropyrimidin-1(2H)-yl)benzoyl)piperidin-4-yl)butyl)piperidin-4-yl)-3-(difluoromethyl)-1H-pyrazol-4-yl)pyrazolo[1,5-a]pyrimidine-3-carboxamide] |  |
| 0.0101 | 0.023 | 93.7 | O=C1CCN(c2cc(C(=O)N3CCC(OCCCN4CCC(n5cc(NC(=O)c6cnn7ccc(N8C[C@H]9C[C@@H]8CO9)nc67)c(C(F)F)n5)CC4)CC3)ccc2Cl)C(=O)N1 [Example 23, 5-((1R,4R)-2-oxa-5-azabicyclo[2.2.1]heptan-5-yl)-N-(1-(1-(3-((1-(4-chloro-3-(2,4-dioxotetrahydropyrimidin-1(2H)-yl)benzoyl)piperidin-4-yl)oxy)propyl)piperidin-4-yl)-3-(difluoromethyl)-1H-pyrazol-4-yl)pyrazolo[1,5-a]pyrimidine-3-carboxamide] |  |
| 0.00616 | 0.00608 | 96.3 | O=C1CCN(c2cc(C(=O)N3CCC4(CCC(CN5CCC(n6cc(NC(=O)c7cnn8ccc(N9CCOCC9)nc78)c(C(F)F)n6)CC5)CC4)CC3)ccc2F)C(=O)N1 [Example 24, N-(3-(difluoromethyl)-1-(1-((3-(3-(2,4-dioxotetrahydropyrimidin-1(2H)-yl)-4-fluorobenzoyl)-3-azaspiro[5.5]undecan-9-yl)methyl)piperidin-4-yl)-1H-pyrazol-4-yl)-5-morpholinopyrazolo[1,5-a]pyrimidine-3-carboxamide] |  |
| 0.0621 | 0.0141 | 97.8 | O=C1CCN(c2cc(C(=O)N3CCC4(CCC(CN5CCC(n6cc(NC(=O)c7cnn8ccc(N9CCOCC9)nc78)c(C(F)F)n6)CC5)CC4)CC3)ccc2C(F)(F)F)C(=O)N1 [Example 25, N-(3-(difluoromethyl)-1-(1-((3-(3-(2,4-dioxotetrahydropyrimidin-1(2H)-yl)-4-(trifluoromethyl)benzoyl)-3-azaspiro[5.5]undecan-9-yl)methyl)piperidin-4-yl)-1H-pyrazol-4-yl)-5-morpholinopyrazolo[1,5-a]pyrimidine-3-carboxamide] |  |
| 0.00318 | 0.0129 | 89.4 | COc1ccc(C(=O)N2CCC3(CCC(CCN4CCC(n5cc(NC(=O)c6cnn7ccc(N8CCOCC8)nc67)c(C(F)F)n5)CC4)CC3)CC2)cc1N1CCC(=O)NC1=O [Example 28, N-(3-(difluoromethyl)-1-(1-(2-(3-(3-(2,4-dioxotetrahydropyrimidin-1(2H)-yl)-4-methoxybenzoyl)-3-azaspiro[5.5]undecan-9-yl)ethyl)piperidin-4-yl)-1H-pyrazol-4-yl)-5-morpholinopyrazolo[1,5-a]pyrimidine-3-carboxamide] |  |
| 0.00355 | 0.011 | 87.1 | Cc1ccc(C(=O)N2CCC3(CCC(CN4CCC(n5cc(NC(=O)c6cnn7ccc(N8CCOCC8)nc67)c(C(F)F)n5)CC4)CC3)CC2)cc1N1CCC(=O)NC1=O [Example 34, N-(3-(difluoromethyl)-1-(1-((3-(3-(2,4-dioxotetrahydropyrimidin-1(2H)-yl)-4-methylbenzoyl)-3-azaspiro[5.5]undecan-9-yl)methyl)piperidin-4-yl)-1H-pyrazol-4-yl)-5-morpholinopyrazolo[1,5-a]pyrimidine-3-carboxamide] |  |

| SMILES | DC50 [1] [µM] | IC50 (IRAK4 kinase) [µM] | Dmax [1] [%] | Dmax (%) [1] [%] |
| --- | --- | --- | --- | --- |
| O=C1CCN(c2cc(C(=O)N3CCC(CCOC[C@H]4CC[C@@H](n5cc(NC(=O)c6cnn7ccc(N8C[C@H]9C[C@@H]8CO9)nc67)c(C(F)F)n5)CC4)CC3)ccc2Cl)C(=O)N1 [Example 9, 5-((1R,4R)-2-oxa-5-azabicyclo[2.2.1]heptan-5-yl)-N-(1-((1R,4R)-4-((2-(1-(4-chloro-3-(2,4-dioxotetrahydropyrimidin-1(2H)-yl)benzoyl)piperidin-4-yl)ethoxy)methyl)cyclohexyl)-3-(difluoromethyl)-1H-pyrazol-4-yl)pyrazolo[1,5-a]pyrimidine-3-carboxamide] | 0.129 | 0.131 |  | 81.0 |

From patent US20240368194A1, “IRAK4 DEGRADATION AGENT, AND PREPARATION METHOD THEREFOR AND USE THEREOF” (SHANGHAI LEADINGTAC PHARMACEUTICAL CO. LTD., priority 2021, published 2024)
